Measured values taken from US20230099027A1 (priority 2020, published 2023).

Tested on: H1N1 Neth09
Format: cell-based, influenza A virus

PEG8
virucidal result: did not give virucidal results
